The values below come from patent publication EP4644383A1 (Jiangsu Yahong Meditech Co., Ltd., priority 2022, dated 2024).

In one assay the target is T1, FGFR3 (Homo sapiens, UniProt P22607).
T1 construct: FGFR3's cytoplasmic domain [436-806 (terminal) amino acids]; purchased Carna 08-135
The assay can be described thus: FGFR3 kinase activity inhibition assay (LanthaScreen TR-FRET). Format: biochemical. As to conditions: for IC50: FGFR3 kinase, TR-FRET, read-out: IC50 (nM) FGFR3; for Selectivity (X) FGFR1/FGFR3: ratio of IC50 FGFR1/FGFR3, selectivity towards FGFR3. Put shortly:
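Read-out is TR-FRET, with the 520 nm/495 nm emission ratio normalised to DMSO (max) and enzyme-free (min) controls. Enzyme was the FGFR3 cytoplasmic domain, residues 436-806. EDTA (10 mM) stopped the reaction, followed by 60 min at 22 °C before reading.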

For another assay, the target named is T2, FGFR1 (Homo sapiens, UniProt P11362).
T2 construct: cytoplasmic domain [398-822 (terminal) amino acids]; purchased Carna 08-133
The assay can be described thus: FGFR1 kinase activity inhibition assay (LanthaScreen TR-FRET). Conditions: FGFR1 kinase, TR-FRET; read-out: IC50 (nM) FGFR1. In kind it is biochemical. Summed up: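 Emission ratio 520 nm/495 nm by TR-FRET after stopping reaction with 10 mM EDTA and 60 min incubation at 22°C. Inhibition normalized between no-enzyme (min) and DMSO (max) controls, then fitted to a four-parameter curve (Top, Bottom, HillSlope).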

Bounds are passed on as bounds.

T1 sequence (P22607 436-806): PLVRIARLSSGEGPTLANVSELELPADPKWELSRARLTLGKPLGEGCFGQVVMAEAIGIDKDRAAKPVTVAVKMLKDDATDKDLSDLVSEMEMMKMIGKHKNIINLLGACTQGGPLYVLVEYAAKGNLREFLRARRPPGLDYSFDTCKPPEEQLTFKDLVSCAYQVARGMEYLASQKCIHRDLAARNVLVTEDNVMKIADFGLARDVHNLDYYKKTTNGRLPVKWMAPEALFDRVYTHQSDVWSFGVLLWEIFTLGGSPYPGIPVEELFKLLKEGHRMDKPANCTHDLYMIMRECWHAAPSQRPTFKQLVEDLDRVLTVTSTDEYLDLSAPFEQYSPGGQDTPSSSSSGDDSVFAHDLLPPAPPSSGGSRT
T2 sequence (P11362 398-822): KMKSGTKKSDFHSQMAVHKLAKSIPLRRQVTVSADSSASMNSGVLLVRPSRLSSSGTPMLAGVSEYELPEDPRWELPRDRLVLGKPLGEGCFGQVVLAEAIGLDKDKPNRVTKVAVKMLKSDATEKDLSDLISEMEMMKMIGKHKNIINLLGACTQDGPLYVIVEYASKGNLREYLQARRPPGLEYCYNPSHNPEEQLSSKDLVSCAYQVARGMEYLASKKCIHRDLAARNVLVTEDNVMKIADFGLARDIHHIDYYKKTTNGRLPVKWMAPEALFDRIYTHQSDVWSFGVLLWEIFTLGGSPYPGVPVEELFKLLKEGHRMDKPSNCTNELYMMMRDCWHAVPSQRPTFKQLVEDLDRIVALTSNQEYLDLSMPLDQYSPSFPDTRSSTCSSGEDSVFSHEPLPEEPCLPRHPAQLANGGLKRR

For `CC(Oc1ccc2[nH]nc(-c3cnn(C4CN(C(=N)N)C4)c3)c2c1)c1cccc2nccnc12` (stereo not shown) [Example 177, 3-(4-(5-(1-(quinoxalin-5-yl)ethoxy)-1H-indazol-3-yl)-1H-pyrazol-1-yl)azetidine-1-carboximidamide], at FGFR3, the IC50 lay within 1 to 10 nM and the “Selectivity (X) FGFR1/FGFR3” value was “B (B represents 20 ≤ multiple X<50)”. The half-inhibitory concentration (IC50) at FGFR1 lay within 10 to 100 nM.

On to `CC(Oc1ccc2[nH]nc(-c3cnn(C4CN(C(=O)N(C)C)C4)c3)c2c1)c1cccc2nccnc12` (stereo not shown) [Example 178, N,N-dimethyl-3-(4-(5-(1-(quinoxalin-5-yl)ethoxy)-1H-indazol-3-yl)-1H-pyrazol-1-yl)azetidine-1-carboxamide], for which, at FGFR3, the IC50 was under 1 nM and the “Selectivity (X) FGFR1/FGFR3” value was “B (B represents 20 ≤ multiple X<50)”. Moreover, at FGFR1, the IC50 fell in the range of 1 to 10 nM.

With `CC(Oc1ccc2[nH]nc(-c3cnn(CCCS(N)(=O)=O)c3)c2c1)c1cccc2nccnc12` (stereo not shown) [Example 179, 3-(4-(5-(1-(quinoxalin-5-yl)ethoxy)-1H-indazol-3-yl)-1H-pyrazol-1-yl)propane-1-sulfonamide], at FGFR3, the IC50 was under 1 nM and the “Selectivity (X) FGFR1/FGFR3” value is recorded as “B (B represents 20 ≤ multiple X<50)”. Moreover, the IC50 on FGFR1 lay within 10 to 100 nM.

Turning to `CC(Oc1ccc2[nH]nc(-c3cnn(C4CN(C(=O)CC#N)C4)c3)c2c1)c1cccc2nccnc12` (stereo not shown) [Example 180, 3-oxo-3-(3-(4-(5-(1-(quinoxalin-5-yl)ethoxy)-1H-indazol-3-yl)-1H-pyrazol-1-yl)azetidin-1-yl)propionitrile], on FGFR3, the IC50 is 1 to 10 nM and the “Selectivity (X) FGFR1/FGFR3” value is recorded as “A (A represents 1 ≤ multiple X<20)”. The IC50 on FGFR1 was in the range of 1 to 10 nM.

For `CC(Oc1ccc2[nH]nc(-c3cnn(C)c3)c2c1)c1cccn2ncc(C#N)c12` (stereo not shown) [Example 186, 4-(1-((3-(1-methyl-1H-pyrazol-4-yl)-1H-indazol-5-yl)oxy)ethyl)py razolo[1,5-a]pyridine-3-carbonitrile], the 50% inhibitory concentration (IC50) on FGFR3 was under 1 nM; at FGFR1 it was 1 to 10 nM. The “Selectivity (X) FGFR1/FGFR3” value on FGFR3 is on record as “A (A represents 1 ≤ multiple X<20)”. Further, on FGFR3 (ratio of IC50 FGFR4/FGFR3, selectivity towards FGFR3), the “Selectivity (X) FGFR4/FGFR3” value is listed as “A (A represents 1 ≤ multiple X<20)”.

As to `Cc1cc(C(C)Oc2ccc3[nH]nc(-c4cnn(C5CN(C(=O)CO)C5)c4)c3c2)c2cccnc2c1` (stereo not shown) [Example 192, 2-hydroxy-1-(3-(4-(5-(1-(7-methylquinolin-5-yl)ethoxy)-1H-indazol-3-yl)-1-pyrazol-1-yl)azetidin-1-yl)ethan-1-one], on FGFR3, the IC50 is under 1 nM and the “Selectivity (X) FGFR1/FGFR3” value is listed as “B (B represents 20 ≤ multiple X<50)”. Moreover, the IC50 on FGFR1 was in the range of 10 to 100 nM.

`CNCC(=O)N1CC(n2cc(-c3n[nH]c4ccc(OC(C)c5cccc6nccnc56)cc34)cn2)C1` (stereo not shown) [Example 193, 2-(methylamino)-1-(3-(4-(5-(1-(quinoxalin-5-yl)ethoxy)-1H-indazol-3-yl)-1H-pyrazol-1-yl)azetidin-1-yl)ethan-1-one]: on FGFR3, the IC50 was under 1 nM and the “Selectivity (X) FGFR1/FGFR3” value was “A (A represents 1 ≤ multiple X<20)”. The IC50 on FGFR1 lay in the range of 1 to 10 nM.

Take `CC(Oc1ccc2[nH]nc(-c3cnn(C4CC(N(C)C(=O)C(C)(C)N)C4)c3)c2c1)c1cccc2nccnc12` (stereo not shown) [Example 196, 2-amino-N,2-dimethyl-N-(3-(4-(5-(1-(quinoxalin-5-yl)ethoxy)-1H-indazol-3-yl)-1H-pyrazol-1-yl)cyclobutyl)propanamide]: the values for the concentration for half-maximal inhibition (IC50) at FGFR3 and on FGFR1 were under 1 nM and 10 to 100 nM, respectively. In addition, on FGFR3, the “Selectivity (X) FGFR1/FGFR3” value was “B (B represents 20 ≤ multiple X<50)”.

`CC(Oc1ccc2[nH]nc(-c3cnn(C4CC(N(C)C(=O)C(C)(C)O)C4)c3)c2c1)c1cccc2nccnc12` (stereo not shown) [Example 197, 2-hydroxy-N,2-dimethyl-N-(3-(4-(5-(1-(quinoxalin-5-yl)ethoxy)-1H-indazol-3-yl)-1H-pyrazol-1-yl)cyclobutyl)prop anamide]: on FGFR3, the IC50 is under 1 nM and the “Selectivity (X) FGFR1/FGFR3” value was “B (B represents 20 ≤ multiple X<50)”. For the same compound, the IC50 at FGFR1 was 10 to 100 nM.

Regarding `CC(Oc1ccc2[nH]nc(-c3cnn(C4CC(N(C)S(C)(=O)=O)C4)c3)c2c1)c1cccc2nccnc12` (stereo not shown) [Example 198, N-methyl-N-(3-(4-(5-(1-(quinoxalin-5-yl)ethoxy)-1H-indazol-3-yl)-1H-pyrazol-1-yl)cyclobutyl)methanesulfonamide], at FGFR3, the IC50 was under 1 nM and the “Selectivity (X) FGFR1/FGFR3” value is listed as “B (B represents 20 ≤ multiple X<50)”. For the same compound, the IC50 on FGFR1 lay within 10 to 100 nM.

Take `CC(=O)N(C)C1CC(n2cc(-c3n[nH]c4ccc(OC(C)c5cccc6nccnc56)cc34)cn2)C1` (stereo not shown) [Example 199, N-methyl-N-(3-(4-(5-(1-(quinoxalin-5-yl)ethoxy)-1H-indazol-3-yl)-1H-pyrazol-1-yl)cyclobutyl)acet amide]: the IC50 was under 1 nM at FGFR3 and 10 to 100 nM at FGFR1. In addition, the “Selectivity (X) FGFR1/FGFR3” value on FGFR3 is “A (A represents 1 ≤ multiple X<20)”.

On to `CC(Oc1ccc2[nH]nc(-c3cnn(CC4CC(=O)N(C)C4)c3)c2c1)c1cccc2nccnc12` (stereo not shown) [Example 200, 1-methyl-4-((4-(5-(1-(quinoxalin-5-yl)ethoxy)-1H-indazol-3-yl)-1H-pyrazol-1-yl)methyl)pyrrolidin-2-one], for which, at FGFR3, the IC50 fell in the range of 1 to 10 nM and the “Selectivity (X) FGFR1/FGFR3” value was “B (B represents 20 ≤ multiple X<50)”. Further, the IC50 at FGFR1 lay within 10 to 100 nM.

Take `CC(Oc1ccc2[nH]nc(-c3cnn(C4CN(C(=O)NC5CC5)C4)c3)c2c1)c1cccc2nccnc12` (stereo not shown) [Example 201, N-cyclopropyl-3-(4-(5-(1-(quinoxalin-5-yl)ethoxy)-1H-indazol-3-yl)-1H-pyrazol-1-yl)azetidine-1-carboxamide]: the results for the IC50 on FGFR3 and at FGFR1 were under 1 nM and 1 to 10 nM, respectively. Besides, the “Selectivity (X) FGFR1/FGFR3” value on FGFR3 is on record as “A (A represents 1 ≤ multiple X<20)”.

`CC(Oc1ccc2[nH]nc(-c3cnn(C4CC(S(C)(=N)=O)C4)c3)c2c1)c1cccc2nccnc12` (stereo not shown) [Example 202, imino(methyl)(3-(4-(5-(1-(quinoxalin-5-yl)ethoxy)-1H-indazol-3-yl)-1H-pyrazol-1-yl)cyclobutyl)-sulfanone]: at FGFR3, the IC50 is under 1 nM and the “Selectivity (X) FGFR1/FGFR3” value is “A (A represents 1 ≤ multiple X<20)”. The IC50 on FGFR1 fell in the range of 1 to 10 nM.

For the compound `CC(Oc1ccc2[nH]nc(-c3cnn(C4CN(C(=O)C5(N)CC5)C4)c3)c2c1)c1cccc2nccnc12` (stereo not shown) [Example 205, (1-aminocyclopropy 1)(3-(4-(5-(1-(quinoxalin-5-yl)ethoxy)-1H-indazol-3-yl)-1H-pyrazol-1-yl)azetidin-1-yl)methanone], at FGFR3, the IC50 was under 1 nM and the “Selectivity (X) FGFR1/FGFR3” value was “B (B represents 20 ≤ multiple X<50)”. The IC50 at FGFR1 lay within 1 to 10 nM.

For `CC(Oc1ccc2[nH]nc(-c3cnn(C4CN(C(=O)C(C)(C)O)C4)c3)c2c1)c1cc(Cl)cc2ncccc12` (stereo not shown) [Example 206, 1-(3-(4-(5-(1-(7-chloroquinolin-5-yl)ethoxy)-1H-indazol-3-yl)-1H-pyrazol-1-yl)azetidin-1-yl)-2-hydroxy-2-methylpropan-1-one], at FGFR3, the IC50 lay within 1 to 10 nM and the “Selectivity (X) FGFR1/FGFR3” value is recorded as “C (C represents 50 ≤ multiple X<100)”. Also, at FGFR1, the IC50 was 10 to 100 nM.

With `CC(Oc1ccc2[nH]nc(-c3cnn(C4CN(C(=O)CO)C4)c3)c2c1)c1cc(Cl)cc2nccnc12` (stereo not shown) [Example 207, 1-(3-(4-(5-(1-(7-chloroquinoxalin-5-yl)ethoxy)-1H-indazol-3-yl)-1H-pyrazol-1-yl)azetidin-1-yl)-2-hydroxyethan-1-one], on FGFR3, the IC50 was under 1 nM and the “Selectivity (X) FGFR1/FGFR3” value was “B (B represents 20 ≤ multiple X<50)”. Further, the IC50 on FGFR1 was 10 to 100 nM.

Consider `CC(Oc1ccc2[nH]nc(-c3cnn(C4CN(C(=O)C(C)(C)N)C4)c3)c2c1)c1c(C(F)F)ccc2ncccc12` (stereo not shown) [Example 208, 2-amino-1-(3-(4-(5-(1-(6-(difluoromethyl)quinoline-5-yl)ethoxy)-1H-indazol-3-yl)-1H-pyrazol-1-yl)azetidin-1-yl)-2-methylpropan-1-one], for which the 50% inhibitory concentration (IC50) was under 1 nM on FGFR3 and 10 to 100 nM at FGFR1. In addition, on FGFR3, the “Selectivity (X) FGFR1/FGFR3” value is given as “B (B represents 20 ≤ multiple X<50)”.

As for `CC(Oc1ccc2[nH]nc(-c3cnn(C4CN(C(=O)C(C)(C)O)C4)c3)c2c1)c1cc(Cl)cc2nccnc12` (stereo not shown) [Example 209, 1-(3-(4-(5-(1-(7-chloroquinoxalin-5-yl)ethoxy)-1H-indazol-3-yl)-1H-pyrazol-1-yl)azetidin-1-yl)-2-hydroxy-2-methylpropan-1-one], the IC50 was under 1 nM on FGFR3 and 10 to 100 nM on FGFR1. At FGFR3, the “Selectivity (X) FGFR1/FGFR3” value is recorded as “B (B represents 20 ≤ multiple X<50)”.

As for `CC(Oc1ccc2[nH]nc(-c3cnn(C4CN(C(=O)C(C)(C)N)C4)c3)c2c1)c1cc(Cl)cc2nccnc12` (stereo not shown) [Example 210, 2-amino-1-(3-(4-(5-(1-(7-chloroquinoxalin-5-yl)ethoxy)-1H-indazol-3-yl)-1-pyrazol-1-yl)azetidin-1-yl)-2-methylpropan-1-one], on FGFR3, the IC50 was under 1 nM and the “Selectivity (X) FGFR1/FGFR3” value is on record as “A (A represents 1 ≤ multiple X<20)”. At FGFR1, the IC50 was in the range of 1 to 10 nM.

In the case of `CC(Oc1ccc2[nH]nc(-c3cnn(C4CN(C(=O)C(C)(C)N)C4)c3)c2c1)c1cc(Cl)cc2ncccc12` (stereo not shown) [Example 211, 2-amino-1-(3-(4-(5-(1-(7-chloroquinolin-5-yl)ethoxy)-1H-indazol-3-yl)-1-pyrazol-1-yl)azetidin-1-yl)-2-methylpropan-1-one], on FGFR3, the IC50 is under 1 nM and the “Selectivity (X) FGFR1/FGFR3” value was “B (B represents 20 ≤ multiple X<50)”. Also, the IC50 on FGFR1 was in the range of 10 to 100 nM.
